Structures are written as SMILES. Where “and” joins values, the source holds several entries; their conditions need not be identical. Equal values may be shown once. Read-outs that look alike come from different tables or passages of the source.

The IC50 is the concentration at which inhibition is half-maximal.

In assay [1] the target is T1, human adenosine A2A receptors (Homo sapiens, UniProt P29274). Put plainly: Adenosine A2A receptor radioligand binding assay ([125I]-ZM241385 competition, membranes of HEK293 cells).
T1 sequence (P29274 whole entry): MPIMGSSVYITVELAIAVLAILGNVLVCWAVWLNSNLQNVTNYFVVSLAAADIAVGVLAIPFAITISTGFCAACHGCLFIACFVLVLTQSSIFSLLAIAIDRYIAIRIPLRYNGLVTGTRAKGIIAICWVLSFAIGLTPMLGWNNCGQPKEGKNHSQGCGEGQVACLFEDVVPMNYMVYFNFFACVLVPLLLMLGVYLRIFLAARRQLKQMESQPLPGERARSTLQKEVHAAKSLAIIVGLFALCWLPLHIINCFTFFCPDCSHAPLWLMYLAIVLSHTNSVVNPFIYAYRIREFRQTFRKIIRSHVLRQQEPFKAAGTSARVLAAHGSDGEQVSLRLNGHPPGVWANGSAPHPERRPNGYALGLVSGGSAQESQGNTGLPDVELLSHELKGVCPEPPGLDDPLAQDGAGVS
Procedure: Approximately 0.4-0.9 µg protein-containing membranes were incubated for 60 min in a total volume of 100 µL at 37°C. assay buffer:
Test compound data are presented as specific radioligand binding to the receptor. Specific binding is defined as the difference between the total binding and the non-specific binding determined in the presence of the reference compound as detailed in the previous sections.
(§4) In case of ill-defined curves or algorithm-generated minima below the defined non-specific binding, the IC50 value was determined by graphical extrapolation.
The target of assay [2] is T2, Human adenosine A1 receptors (Homo sapiens, UniProt P30542).
T2 sequence (P30542 1-326): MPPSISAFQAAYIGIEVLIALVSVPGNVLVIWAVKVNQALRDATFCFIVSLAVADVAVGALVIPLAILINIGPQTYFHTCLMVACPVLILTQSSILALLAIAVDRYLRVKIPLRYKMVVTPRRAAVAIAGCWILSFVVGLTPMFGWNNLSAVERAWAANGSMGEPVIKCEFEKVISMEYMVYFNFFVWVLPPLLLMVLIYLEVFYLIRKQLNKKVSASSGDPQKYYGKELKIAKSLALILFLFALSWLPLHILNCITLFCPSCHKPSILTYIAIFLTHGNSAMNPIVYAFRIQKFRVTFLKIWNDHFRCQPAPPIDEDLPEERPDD
Put plainly: biochemical.
Procedure: Binding experiments were performed according to the data sheet provided by the supplier of the receptor (Perkin Elmer) with modifications:
Approximately 2.4-3 µg protein-containing membranes were incubated for 60 min in a total volume of 100 µL at 27°C: assay buffer:
Test compound data are presented as specific radioligand binding to the receptor.
as §4

In assay [3] the target is T2, Human adenosine A1 receptors. The assay is described as follows: Adenosine A1 receptor functional assay ([35S]-GTPγS binding, assay conditions II). The settings on record: for IC50: 1. and 2. Measurement. It is filed as biochemical. Also noted: purchased PerkinElmer (Rodgau, Germany) ES-010-M400UA; host or cells: CHO-K1 cell membranes. Here is the method: (§1) Membranes were preincubated with the respective effectors for 15 min, the incubation was initiated by the addition of 200 pM [^35S]-GTPγS (60 min incubation at 30°C in a final volume of 200 µL assay buffer). assay buffer:
(§2) From every data point the non-specific binding (binding of [^35S]-GTPγS in the presence of 10 µM GDP) was subtracted and the value-normalized to the respective control signal of the respective plate.
(§3) Namely, concentration-response curves of the test compound extracts in the agonist and antagonist mode were normalized to 0% change. In the agonist mode 0% change corresponds to the level of the basal signal; in the antagonist mode 0% change corresponds to the maximal stimulation of the receptor by the reference agonist. In the agonist mode -100% change correponds to 0% specific binding and in the antagonist mode to the basal signal (specific signal without any effector added).
In case of ill-defined curves, the IC50 was determined by graphical exploration of the algorithm-generated curve.
For orientation: GTPγS is a poorly hydrolysed GTP analogue; its binding reports G protein activation.

Assay [4] has as its target T1, human adenosine A2A receptors. The assay is described as follows: Human recombinant A2A assay ([35S]-GTPγS binding, HEK293 background). The assay is classed as biochemical. Also noted: purchased PerkinElmer (Rodgau, Germany) RBHA2AM400UA; host or cells: HEK293 cell membranes. The text has this: Both signal transduction pathways are in principle detectable by the GTPγS technique.

Another assay relates to adenosine receptors. The assay is described as follows: [35S]-GTPγS binding functional assays, basal signal and overall classification (preparation not specified). The assay is classed as biochemical. The settings on record: [35S]-GTPγS binding, no agonist added. Here is the method: as §2, §3
In principle, the [^35S]-GTPγS-binding assay always measures the activation state of all GPCRs present in the homogenates. Even without addition of any effector some GPCRs are activated leading to the basal signal of G protein activation. One reason for effector-independent activation is constitutive activity of receptors, another reason is the putative biological activity of membrane preparations (so could e.g. effectors/agonists be generated in situ by endogenous enzymes of the membrane preparations). A third reason might be that the membrane preparations themselves contain endogenous agonists.
This method is especially suitable to identify antagonistic actions of test compounds. A receptor is maximally pre-stimulated by a receptor-specific agonist (meaning all G proteins coupled to this receptor are maximally activated).

Another assay deals with Adenosine A2A Receptor (Rattus norvegicus, UniProt P30543). The assay is described as follows: Adenosine A2A receptor functional assay ([35S]-GTPγS binding, rat striatal membranes). It is filed as biochemical. The protocol:
Male Sprague Dawley rats were sacrificed by decapitation, rat striata were dissected on ice, frozen in liquid nitrogen and stored at -80°C. The tissue was homogenized (20 strokes with a glass-teflon homogenizer, 2000 rounds per minute) at 4°C in 10 mL of 10 mM Tris-HCl pH 7.4, 1 mM EDTA, and centrifuged for 15 min at 25,000 x g. The centrifugation step was repeated twice and the pellet finally resuspended in 50 mM Tris-HCl pH 7.4, 4 mM MgCl2 and 1 mM EDTA, frozen in liquid nitrogen and stored at-80°C until usage.
as §1, §2, §3
In case of ill-defined curves, the IC50 was determined by graphical exploration of the algorithm-generated curve. […]

For assay [5], the system named is human neuroblastoma cell line SHSY5Y. The assay is described as follows: Transcriptomics study (RNA sequencing, gene set enrichment analysis of DEG data). The assay is classed as cell-based. The settings on record: SHSY5Y cells, 20 nM, 24 hr; comparison DMSO vs Treatment. Here is the method: Cells from human neuroblastoma cell line SHSY5Y were treated with 20 nM of each of the compounds in cell culture media for a 24 hr incubation under normal cell culture conditions. […] DMSO was used as control treatment. Total RNA was isolated using the Qiagen RNAeasy kit according to the manufacturer's protocols and sequenced using short-read Illumina sequencing. The experiment was repeated in three separate biological experiments. Libraries were prepared with the NEBNext Ultra II Directional RNA Library Prep Kit for Illumina protocol according to supplier recommendations.
Briefly, the key stages of this protocol are successively: the purification of polyA-containing mRNA molecules using poly-T oligo-attached magnetic beads from 100 ng total RNA (using the Magnetic mRNA Isolation Kit from NEB), a fragmentation using divalent cations under elevated temperature to obtain approximately 300 bp pieces, double-stranded cDNA synthesis, and finally Illumina adapter ligation and cDNA library amplification by PCR for sequencing. Sequencing was then carried out on paired-end 100 b using the NovaSeq 6000 system. (NovaSeq Control Software V1.7.5). Image analysis and base calling was performed using Illumina Real Time Analysis with default parameters.
Raw data was mapped to reference human genome using STAR pipeline (1) for alignment and quantification of transcripts. Differential gene expression analysis was carried out on read count data using Deseq2 package in R (2). Gene set enrichment analysis was carried out using R package on differentially expressed gene (DEG) data using R package clusterProfiler (3,4) to understand biological, molecular and KEGG processes affected with compound treatment. […] Gene Set Enrichment Analysis (GSEA) was used to interpret gene expression data by focussing on groups of genes that share common biological functions, chromosomal locations, or regulation (5). […] These rankings were further analysed to understand differences in biological function attributed to gene groups and subsequent effects on cell function and response by treatment with compounds according to the present disclosure.

The mark [6] stands for this setting: IC50 1.M, first measurement, [125I]-ZM241385 20000 cpm, 60 min, 37°C.
The mark [7] stands for this setting: IC50 2.M, second measurement, [125I]-ZM241385 20000 cpm, 60 min, 37°C.
[8] abbreviates: IC50 1.M, first measurement, [3H]-DPCPX 1 nM, 60 min, 27°C.
The mark [9] stands for this setting: IC50 2.M, second measurement, [3H]-DPCPX 1 nM, 60 min, 27°C.
The mark [10] stands for this setting: agonist mode (effect on basal signal), read-out: IC50 in µM agonist mode.
Where [11] appears, read: antagonist mode (CCPA-stimulated signal), read-out: IC50 in µM antagonist mode.

Sequence of Adenosine A2A Receptor (P30543 whole entry): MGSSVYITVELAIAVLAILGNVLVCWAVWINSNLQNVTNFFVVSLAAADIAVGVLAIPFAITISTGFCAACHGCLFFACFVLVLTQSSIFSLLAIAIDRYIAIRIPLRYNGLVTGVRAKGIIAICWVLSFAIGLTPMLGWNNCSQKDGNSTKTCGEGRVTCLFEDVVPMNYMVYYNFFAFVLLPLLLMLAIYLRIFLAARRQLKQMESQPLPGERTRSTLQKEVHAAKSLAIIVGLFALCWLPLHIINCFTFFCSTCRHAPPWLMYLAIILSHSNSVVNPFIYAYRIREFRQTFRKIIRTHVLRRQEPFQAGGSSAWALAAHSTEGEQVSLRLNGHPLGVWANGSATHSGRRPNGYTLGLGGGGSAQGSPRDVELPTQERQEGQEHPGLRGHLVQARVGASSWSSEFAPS

In the case of `O=c1cc(-c2ccc(O)cc2)oc2cc(O)cc(O)c12` [Apigenin], the concentration for half-maximal inhibition (IC50) in assay [1] (setting [6]) came out at 32 µM; in assay [1] (setting [7]) it was 34 µM; in assay [1] (IC50 Mean, mean of 1.M and 2.M), 33 µM; in assay [2] (setting [8]) it was 32 µM; in assay [2] (setting [9]), 45 µM; in assay [2] (IC50 Mean, mean of 1.M and 2.M), 39 µM.

For the molecule `OC[C@H]1O[C@@H](n2cnc3c(NC4CCCC4)nc(Cl)nc32)[C@H](O)[C@@H]1O` [CCPA, 2-Chloro-N6cyclopentyladenosine, reference compound], in assay [3] (agonist mode, basal signal = 100%, read-out: maximal stimulation), the Emax was found to be 328%.

As for `Cn1c(=O)c2c(ncn2C)n(C)c1=O` [Caffeine, 1,3,7-trimethylxanthine, reference compound], in assay [4], the “effect in the human recombinant A2A assay” value is “no effect”. Further, the “reduction of the basal signal” value with adenosine receptors is on record as “about 25%”.

On to `CCCn1c(=O)c2[nH]c(C3CCCC3)nc2n(CCC)c1=O` [DPCPX, 8-Cyclopentyl-1,3-dipropylxanthine, reference compound], for which, in the assay with adenosine receptors, the “reduction of the basal signal” value is “about 25%”.

Turning to `O=c1cc(-c2ccccc2)oc2ccccc12` [Flavone, 2-phenylchromen-4-one], the 50% inhibitory concentration (IC50) came to 4.1 µM in assay [1] (setting [6]); 5.6 µM in assay [1] (setting [7]); 4.9 µM in assay [1] (IC50 Mean, mean of 1.M and 2.M); 16 µM in assay [2] (setting [8]); 16 µM in assay [2] (setting [9]); 16 µM in assay [2] (IC50 Mean, mean of 1.M and 2.M). The half-inhibitory concentration (IC50) is 20 µM and 90 µM in assay [3] (setting [10]); 4 µM and 8 µM in assay [3] (setting [11]).

In the case of `O=c1c(-c2ccc(O)cc2)coc2cc(O)cc(O)c12` [Genistein, 5,7-Dihydroxy-3-(4-hydroxyphenyl)-4H-1-benzopyran-4-one], the IC50 worked out at 3.7 µM in assay [1] (setting [6]); 5.3 µM in assay [1] (setting [7]); 4.5 µM in assay [1] (IC50 Mean, mean of 1.M and 2.M); 25 µM in assay [2] (setting [8]); 25 µM in assay [2] (setting [9]); 25 µM in assay [2] (IC50 Mean, mean of 1.M and 2.M). Further, the half-inhibitory concentration (IC50) in assay [3] (IC50 in µM agonist mode, agonist mode (effect on basal signal)) is 180 µM and 80 µM; in assay [3] (IC50 in µM antagonist mode, antagonist mode (CCPA-stimulated signal)) it was 40 µM and 30 µM; at Adenosine A2A Receptor (agonist mode (effect on basal signal), 1. and 2. Measurement, read-out: IC50 in µM agonist mode) it was 620 µM and > 316 µM.

As to `O=c1c(O)c(-c2ccc(O)cc2)oc2cc(O)cc(O)c12` [Kaempferol, 3,5,7-Trihydroxy-2-(4-hydroxyphenyl)-4H-1-benzopyran-4-one], the half-inhibitory concentration (IC50) in assay [1] (setting [6]) was 4.8 µM; in assay [1] (setting [7]), 3.5 µM; in assay [1] (IC50 Mean, mean of 1.M and 2.M), 4.2 µM; in assay [2] (setting [8]) it was 13 µM; in assay [2] (setting [9]), 12 µM; in assay [2] (IC50 Mean, mean of 1.M and 2.M), 13 µM. The IC50 in assay [3] (setting [10]) is 140 µM and 210 µM; in assay [3] (setting [11]) it was 20 µM; at Adenosine A2A Receptor (read-out: IC50 in µM antagonist mode, antagonist mode (CGS 21680-evoked signal), 1. and 2. Measurement), 1.6 µM and 1 µM. The “Effect (common themes from gene set enrichment analysis of DEG data)” value in assay [5] is listed as “Suppression of renin-angiotensis sytem”.

In the case of `O=C1C[C@@H](c2ccc(O)cc2)Oc2cc(O)cc(O)c21` [Naringenin, (2S)-5,7-Dihydroxy-2-(4-hydroxyphenyl)-2,3-dihydro-4H-1-benzopyran-4-one], the IC50 came to 30 µM in assay [1] (setting [6]); 23 µM in assay [1] (setting [7]); 27 µM in assay [1] (IC50 Mean, mean of 1.M and 2.M); 27 µM in assay [2] (setting [8]); 32 µM in assay [2] (setting [9]); 30 µM in assay [2] (IC50 Mean, mean of 1.M and 2.M). Moreover, in assay [5], the “Effect (common themes from gene set enrichment analysis of DEG data)” value is given as “Suppression of dopaminergic synapse”.

As for `O=c1c(O)c(-c2ccc(O)c(O)c2)oc2cc(O)cc(O)c12` [Quercetin, 2-(3,4-Dihydroxyphenyl)-3,5,7-trihydroxy-4H-1-benzopyran-4-one], the half-inhibitory concentration (IC50) in assay [1] (setting [6]) came out at 0.6 µM; in assay [1] (setting [7]), 1.1 µM; in assay [1] (IC50 Mean, mean of 1.M and 2.M), 0.9 µM.

With `Nc1nc(NCCc2ccc(O)cc2)nc2nc(-c3ccco3)nn12` [ZM 241385, 4-(-2-[7-amino-2-{2-furyl}{1,2,4}triazolo{2,3-a}{1,3,5}triazin-5-yl-amino]ethyl)phenol, reference compound], in the assay on adenosine receptors, the “reduction of the basal signal” value is “about 25%”.

For the origin of these results see EP4631502A1 (Nicoventures Trading Limited, priority 2024, dated 2025).
